# Experimental data reported in patent US20240384268A1, “Oligonucleotides” (Hudson Institute of Medical Research, priority 2021, published 2024).
# In the oligonucleotide strings, read from the 5' end, every base follows the letter of its sugar. An asterisk marks phosphorothioate; unmarked linkages are phosphodiester. Other units and linkages are bracketed, terminal groups are in braces. A string of capitals states the bases alone. d = 2'-deoxy (DNA); m = 2'-O-methyl
# Target: T1, human TLR9 (Homo sapiens, UniProt Q9NR96)
# T1 construct: HA; host or cells: 293XL-hTLR9-HA (HEK293)
# T1 sequence (Q9NR96 26-1032): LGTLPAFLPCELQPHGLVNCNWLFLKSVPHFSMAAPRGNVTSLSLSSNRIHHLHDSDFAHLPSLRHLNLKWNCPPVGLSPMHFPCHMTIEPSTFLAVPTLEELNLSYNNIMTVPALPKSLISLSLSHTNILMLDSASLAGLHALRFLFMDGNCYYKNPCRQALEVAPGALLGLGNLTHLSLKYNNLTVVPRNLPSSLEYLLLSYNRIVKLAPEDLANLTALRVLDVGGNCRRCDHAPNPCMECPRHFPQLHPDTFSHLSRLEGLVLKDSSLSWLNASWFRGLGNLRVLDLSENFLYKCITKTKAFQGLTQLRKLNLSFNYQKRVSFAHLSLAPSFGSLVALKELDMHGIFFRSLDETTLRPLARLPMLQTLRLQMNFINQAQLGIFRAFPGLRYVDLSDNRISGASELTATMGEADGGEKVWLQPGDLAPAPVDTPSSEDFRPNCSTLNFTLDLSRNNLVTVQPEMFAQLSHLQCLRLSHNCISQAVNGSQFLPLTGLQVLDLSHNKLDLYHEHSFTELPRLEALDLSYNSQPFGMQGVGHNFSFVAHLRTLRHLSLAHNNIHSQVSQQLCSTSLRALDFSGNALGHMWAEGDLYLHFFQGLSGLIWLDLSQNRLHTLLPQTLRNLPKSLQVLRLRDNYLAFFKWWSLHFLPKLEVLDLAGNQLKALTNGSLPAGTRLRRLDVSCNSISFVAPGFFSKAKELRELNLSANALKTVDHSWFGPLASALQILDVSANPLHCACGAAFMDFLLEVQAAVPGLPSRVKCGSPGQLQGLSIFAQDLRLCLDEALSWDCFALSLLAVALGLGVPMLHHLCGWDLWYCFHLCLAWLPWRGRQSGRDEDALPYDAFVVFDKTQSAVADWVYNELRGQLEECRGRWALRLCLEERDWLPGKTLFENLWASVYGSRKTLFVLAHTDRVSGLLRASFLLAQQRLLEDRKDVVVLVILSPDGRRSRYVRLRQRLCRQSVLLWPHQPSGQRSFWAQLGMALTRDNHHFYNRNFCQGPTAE
# Assay: HEK-TLR9 NF-κB-luciferase reporter, ODN2006 stimulation
# Format: cell-based
# Details: for TLR9 2 uM: 3mer 2'OMe ASO at 2 uM, HEK-TLR9, value relative to Ligand only = 1.000, NT = 0.000; for TLR9 100 nM (averaged NF-κB-Luciferase level relative to ODN2006 condition): ASO 100 nM; for TLR9 100 nM (averaged NF-κB-Luciferase level relative to ODN2006 condition) / TLR9 500 nM (averaged NF-κB-Luciferase level relative to ODN2006 condition): relative to ODN2006 only, given as fraction; for TLR9 500 nM (averaged NF-κB-Luciferase level relative to ODN2006 condition): ASO 500 nM
Substance,TLR9 2 uM,TLR9 100 nM (averaged NF-κB-Luciferase level relative to ODN2006 condition),TLR9 500 nM (averaged NF-κB-Luciferase level relative to ODN2006 condition)
CGU (mC*mG*mU),1.237,–,–
CUC (mC*mU*mC),0.966,–,–
UUU (mU*mU*mU),0.936,–,–
UAA (mU*mA*mA),1.176,–,–
"dC*dC*dC (CCC; listed as DNA, chemistry not fully specified)",1.069,–,–
"dC*dC*dA (CCA; listed as DNA, chemistry not fully specified)",1.014,–,–
"ACACTTCGTGGGGTCC (antisense; LNA-modified, pattern not given here) [HPRT LNA-665 V1]",–,0.241,0.001
GCU (mG*mC*mU),1.429,–,–
"TGTGATGGCCTCCCAT (antisense; LNA-modified, pattern not given here) [HPRT LNA-334 V1]",–,0.818,0.431
GGU (mG*mG*mU),1.177,–,–
CUG (mC*mU*mG),0.948,–,–
"mUmGmA (mU*mG*mA) [UGA, 3-mer 2′OMe PS oligo]",1.034,–,–
"CAACACTTCGTGGGGT (antisense; LNA-modified, pattern not given here) [HPRT LNA-667 V1]",–,0.733,0.395
"dC*dA*dA (CAA; listed as DNA, chemistry not fully specified)",0.917,–,–
"GTTCAGTCCTGTCCAT (antisense; LNA-modified, pattern not given here) [HPRT LNA-292 V1]",–,1.081,0.382
UAG (mU*mA*mG),0.977,–,–
"CCAAGATCAGCAGTCT (antisense; LNA-modified, pattern not given here) [CTNN2B-2341 LNA KL]",–,1.424,0.669
UGC (mU*mG*mC),1.198,–,–
"GATAGCACCTTCAGCA (antisense; LNA-modified, pattern not given here) [CTNN2B-1294 LNA KL]",–,0.804,0.560
"dC*dG*dA (CGA; listed as DNA, chemistry not fully specified)",1.061,–,–

Substance,TLR9 2 uM,TLR9 100 nM (averaged NF-κB-Luciferase level relative to ODN2006 condition),TLR9 500 nM (averaged NF-κB-Luciferase level relative to ODN2006 condition)
UAC (mU*mA*mC),0.997,–,–
"TTTTGGCTGGGATCAA (antisense; LNA-modified, pattern not given here) [CAMSAP1-4697 LNA KL]",–,0.985,0.169
"GCCATCCACTTGATAG (antisense; LNA-modified, pattern not given here) [EGFR-2874 LNA V1]",–,0.772,0.589
"GGCTGGAATCCGAGTT (antisense; LNA-modified, pattern not given here) [EGFR-4705 LNA KL]",–,1.051,0.492
"TGCACACTTCGTACCC (antisense; LNA-modified, pattern not given here) [CAMSAP1-4916 LNA V1]",–,0.283,0.244
"dA*dC*dA (DNA ACA; listed as RNA, chemistry not fully specified)",1.042,–,–
"dA*dG*dA (DNA AGA; listed as DNA, chemistry not fully specified)",0.848,–,–
CUA (mC*mU*mA),1.182,–,–
"UUG (listed as RNA, chemistry not fully specified)",0.816,–,–
dG*dC*dC [GCC],1.305,–,–
"mGmAmU (mG*mA*mU) [GAU, 3-mer 2′OMe PS oligo]",0.700,–,–
"mGmUmA (GUA; all 2'-O-methyl, backbone not given here; further chemistry not fully specified) [shortMut1-3b]",1.042,–,–
"mGmUmC (mG*mU*mC) [GUC, 3-mer 2′OMe PS oligo]",0.856,–,–
"GTGTCTGGAAGCTTCC (antisense; LNA-modified, pattern not given here) [CTNN2B-809 LNA V1]",–,0.493,0.613
AAU (antisense mA*mA*mU),0.884,–,–
AUA (antisense mA*mU*mA),0.944,–,–
"TTCGTGGGGTCCTTTT (antisense; LNA-modified, pattern not given here) [HPRT LNA-661 V1]",–,0.963,0.523
"GGTTACGGCTCAGTAT (antisense; LNA-modified, pattern not given here) [CAMSAP1-4295 LNA KL]",–,0.943,0.400
"GCAGGCTCAGTGATGT (antisense; LNA-modified, pattern not given here) [CTNN2B-1642 LNA V1]",–,1.036,0.228
"TGATGGCCTCCCATCT (antisense; LNA-modified, pattern not given here) [HPRT LNA-332 V1]",–,0.770,0.153

Substance,TLR9 2 uM,TLR9 100 nM (averaged NF-κB-Luciferase level relative to ODN2006 condition),TLR9 500 nM (averaged NF-κB-Luciferase level relative to ODN2006 condition)
UUC (mU*mU*mC),0.770,–,–
"dA*dA*dG (DNA AAG; listed as DNA, chemistry not fully specified)",0.870,–,–
"dA*dA*dC (DNA AAC; listed as DNA, chemistry not fully specified)",0.931,–,–
"TGGCCTCCCATCTCCT (antisense; LNA-modified, pattern not given here) [HPRT LNA-329 V1]",–,0.743,0.277
AUG (mA*mU*mG),0.878,–,–
"mUmCmA (mU*mC*mA) [UCA, 3-mer 2′OMe PS oligo]",0.872,–,–
"TCCAACACTTCGTGGG (antisense; LNA-modified, pattern not given here) [HPRT LNA-669 V1]",–,0.623,0.473
"GCATCCACCACGTCGT (antisense; LNA-modified, pattern not given here) [EGFR-3267 LNA V1]",–,0.556,0.375
UGU (mU*mG*mU),1.085,–,–
CCU (mC*mC*mU),1.180,–,–
"GTATCGAAAGAGTCTG (antisense; LNA-modified, pattern not given here) [EGFR-3908 LNA KL]",–,1.429,0.647
AGU (antisense mA*mG*mU),0.840,–,–
"GTCTTGGCTTCGTGGA (antisense; LNA-modified, pattern not given here) [MB21D1-522 LNA V1]",–,0.745,0.392
CAU (mC*mA*mU),0.921,–,–
mCmUmU (antisense mC*mU*mU) [660-3],1.108,–,–
"GCCATGTTTCTTCTTG (antisense; LNA-modified, pattern not given here) [MB21D1-1248 LNA KL]",–,0.163,0.070
"TCGTAGTTGCTTCCTA (antisense; LNA-modified, pattern not given here) [MB21D1-1181 LNA KL]",–,0.987,0.224
UCU (mU*mC*mU),0.876,–,–
"dC*dC*dG (CCG; listed as DNA, chemistry not fully specified)",0.936,–,–
UAU (mU*mA*mU),1.145,–,–
